Assay results taken from PMC8550792, “Evolution of kinase polypharmacology across HSP90 drug discovery” (Cell Chemical Biology, 2021).

Key:
Test in all cases: biochemical
Type in all cases: biochemical
[1] = biological target: T1, 382 unique human kinases (Homo sapiens, UniProt P54760); conditions: EPHB4, [ATP] 20 µM, compound 10 uM; for remaining activity at 10 µM: read-out: % Enzyme Activity (relative to DMSO controls)
T1 construct: purchased Reaction Biology (HotSpot contract assay)
T1 sequence (P54760 16-987): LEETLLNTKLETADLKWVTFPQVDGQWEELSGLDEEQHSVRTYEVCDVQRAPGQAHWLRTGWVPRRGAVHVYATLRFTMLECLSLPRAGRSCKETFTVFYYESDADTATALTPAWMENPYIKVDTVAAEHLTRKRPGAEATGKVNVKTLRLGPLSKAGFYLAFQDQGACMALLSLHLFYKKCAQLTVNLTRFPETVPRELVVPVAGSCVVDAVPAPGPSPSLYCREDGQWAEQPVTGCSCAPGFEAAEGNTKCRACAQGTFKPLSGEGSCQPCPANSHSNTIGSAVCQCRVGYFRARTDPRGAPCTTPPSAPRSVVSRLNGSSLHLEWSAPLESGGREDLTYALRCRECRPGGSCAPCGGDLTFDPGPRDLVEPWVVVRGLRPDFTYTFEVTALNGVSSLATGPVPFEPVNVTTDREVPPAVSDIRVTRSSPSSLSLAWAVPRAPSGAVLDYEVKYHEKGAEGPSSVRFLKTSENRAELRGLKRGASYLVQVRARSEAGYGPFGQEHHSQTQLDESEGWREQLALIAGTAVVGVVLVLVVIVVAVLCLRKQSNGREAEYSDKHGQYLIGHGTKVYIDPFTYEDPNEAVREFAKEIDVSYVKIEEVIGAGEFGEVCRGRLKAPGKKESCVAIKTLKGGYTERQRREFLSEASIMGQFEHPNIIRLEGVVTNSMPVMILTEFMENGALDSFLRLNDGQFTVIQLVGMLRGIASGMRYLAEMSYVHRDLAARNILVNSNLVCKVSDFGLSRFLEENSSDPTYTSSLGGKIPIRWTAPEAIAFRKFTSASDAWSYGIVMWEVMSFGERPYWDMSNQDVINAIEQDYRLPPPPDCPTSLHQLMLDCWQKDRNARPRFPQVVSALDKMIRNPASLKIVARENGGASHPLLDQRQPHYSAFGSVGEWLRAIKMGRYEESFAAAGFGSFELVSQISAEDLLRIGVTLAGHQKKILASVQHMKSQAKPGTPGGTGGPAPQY

[2] = biological target: T2, 382 unique human kinases (Homo sapiens, UniProt Q8IVT5); conditions: KSR1, 10 uM; for remaining activity at 10 µM: read-out: % Enzyme Activity (relative to DMSO controls)
T2 construct: purchased Reaction Biology (HotSpot contract assay)
T2 sequence (Q8IVT5 1-923): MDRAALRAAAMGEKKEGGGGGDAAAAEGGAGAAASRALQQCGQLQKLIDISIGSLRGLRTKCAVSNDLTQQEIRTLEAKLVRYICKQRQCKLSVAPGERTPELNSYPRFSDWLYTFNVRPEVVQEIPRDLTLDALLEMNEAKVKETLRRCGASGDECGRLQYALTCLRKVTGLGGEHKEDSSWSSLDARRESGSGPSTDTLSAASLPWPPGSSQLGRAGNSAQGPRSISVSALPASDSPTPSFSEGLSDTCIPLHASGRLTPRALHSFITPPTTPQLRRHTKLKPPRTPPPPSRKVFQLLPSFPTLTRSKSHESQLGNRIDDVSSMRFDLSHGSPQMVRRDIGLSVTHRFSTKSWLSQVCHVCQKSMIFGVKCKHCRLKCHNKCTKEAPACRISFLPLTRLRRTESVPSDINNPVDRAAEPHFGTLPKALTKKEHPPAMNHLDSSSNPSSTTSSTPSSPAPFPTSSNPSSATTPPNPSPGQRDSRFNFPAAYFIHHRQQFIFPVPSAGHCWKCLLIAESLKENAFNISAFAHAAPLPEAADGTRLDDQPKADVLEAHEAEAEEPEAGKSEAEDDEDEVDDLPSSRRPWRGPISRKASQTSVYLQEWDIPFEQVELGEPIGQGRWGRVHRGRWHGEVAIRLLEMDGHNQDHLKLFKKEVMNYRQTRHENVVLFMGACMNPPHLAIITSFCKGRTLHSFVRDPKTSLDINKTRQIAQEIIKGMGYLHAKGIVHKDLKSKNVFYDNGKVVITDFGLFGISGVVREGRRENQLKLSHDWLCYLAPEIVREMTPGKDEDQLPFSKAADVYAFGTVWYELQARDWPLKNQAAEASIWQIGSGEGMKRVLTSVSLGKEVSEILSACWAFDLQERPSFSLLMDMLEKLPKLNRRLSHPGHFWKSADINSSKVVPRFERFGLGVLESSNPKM

[3] = biological target: T3, 382 unique human kinases (Homo sapiens, UniProt Q02750); conditions: kinase MEK1, compound 10 uM; for remaining activity at 10 µM: read-out: % Enzyme Activity (relative to DMSO controls)
T3 construct: purchased Reaction Biology (HotSpot contract assay)

[4] = biological target: T4, 382 unique human kinases (Homo sapiens, UniProt Q8TD19); conditions: NEK9, 10 uM; for remaining activity at 10 µM: read-out: % Enzyme Activity (relative to DMSO controls)
T4 construct: purchased Reaction Biology (HotSpot contract assay)
T4 sequence (Q8TD19 1-979): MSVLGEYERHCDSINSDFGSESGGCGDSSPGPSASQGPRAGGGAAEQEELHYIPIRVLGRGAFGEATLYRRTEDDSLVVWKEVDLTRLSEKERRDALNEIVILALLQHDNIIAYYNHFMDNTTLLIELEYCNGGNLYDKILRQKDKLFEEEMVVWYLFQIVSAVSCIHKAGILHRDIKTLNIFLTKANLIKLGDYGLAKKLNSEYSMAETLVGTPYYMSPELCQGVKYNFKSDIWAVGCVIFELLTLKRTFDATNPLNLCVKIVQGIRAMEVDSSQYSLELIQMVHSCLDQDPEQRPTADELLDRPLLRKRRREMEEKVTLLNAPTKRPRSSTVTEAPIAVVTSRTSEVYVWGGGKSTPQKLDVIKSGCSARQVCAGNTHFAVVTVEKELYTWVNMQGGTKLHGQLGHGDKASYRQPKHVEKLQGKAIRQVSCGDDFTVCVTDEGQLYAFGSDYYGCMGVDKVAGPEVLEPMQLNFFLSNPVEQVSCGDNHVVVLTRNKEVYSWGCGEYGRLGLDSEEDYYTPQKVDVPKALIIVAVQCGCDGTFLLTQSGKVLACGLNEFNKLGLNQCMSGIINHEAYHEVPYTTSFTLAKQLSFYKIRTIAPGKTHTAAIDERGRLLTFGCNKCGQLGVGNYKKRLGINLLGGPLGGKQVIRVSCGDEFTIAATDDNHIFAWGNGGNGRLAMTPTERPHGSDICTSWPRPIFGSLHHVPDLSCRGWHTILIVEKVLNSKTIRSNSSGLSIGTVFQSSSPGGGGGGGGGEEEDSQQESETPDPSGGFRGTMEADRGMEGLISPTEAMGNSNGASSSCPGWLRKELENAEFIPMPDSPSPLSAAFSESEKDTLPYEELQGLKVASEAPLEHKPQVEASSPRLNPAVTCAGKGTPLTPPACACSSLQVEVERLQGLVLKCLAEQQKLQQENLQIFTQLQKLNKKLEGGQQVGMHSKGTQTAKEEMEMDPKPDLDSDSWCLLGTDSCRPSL

T3 sequence (Q02750 whole entry): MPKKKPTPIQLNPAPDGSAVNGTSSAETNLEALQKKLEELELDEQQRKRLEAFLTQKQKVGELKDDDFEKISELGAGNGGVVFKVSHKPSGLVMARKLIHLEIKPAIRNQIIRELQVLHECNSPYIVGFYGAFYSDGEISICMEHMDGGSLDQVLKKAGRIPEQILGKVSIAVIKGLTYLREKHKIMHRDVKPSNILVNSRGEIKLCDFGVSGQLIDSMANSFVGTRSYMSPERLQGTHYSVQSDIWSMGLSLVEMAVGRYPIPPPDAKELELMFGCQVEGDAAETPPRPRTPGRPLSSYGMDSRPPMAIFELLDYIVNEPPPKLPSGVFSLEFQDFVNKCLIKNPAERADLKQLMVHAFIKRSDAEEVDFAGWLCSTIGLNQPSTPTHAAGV

Row | Compound | % Enzyme Activity (relative to DMSO controls) [1] [%] | remaining activity at 10 µM [1] [%] | % Enzyme Activity (relative to DMSO controls) [2] [%] | remaining activity at 10 µM [2] [%] | remaining activity at 10 µM [3] [%] | remaining activity at 10 µM [4] [%] | % Enzyme Activity (relative to DMSO controls) [3] [%] | % Enzyme Activity (relative to DMSO controls) [4] [%]
1 | CCNC(=O)c1noc(-c2cc(C(C)C)c(O)cc2O)c1-c1ccc(CN2CCOCC2)cc1 [Luminespib] | 81.04 | 82.2 | 97.63 | 98.8 | – | – | – | –
2 | CC(C)c1cc(-c2n[nH]c(=O)n2-c2ccc3c(ccn3C)c2)c(O)cc1O [Ganetespib (STA9090)] | – | – | – | – | 90.3 | 62.5 | – | –
3 | CCNC(=O)c1noc(-c2cc(C(C)C)c(O)cc2O)c1-c1ccc(CN2CCOCC2)cc1 [Luminespib (AUY-922)] | – | – | – | – | 95.8 | 73 | 95.75 | 72.56
4 | CC(C)c1cc(-c2n[nH]c(=O)n2-c2ccc3c(ccn3C)c2)c(O)cc1O [Ganetespib] | – | 33.1 | – | 99.8 | – | – | – | –
